Here are results for 22 molecules from patent US20190330226A1, “POSITIVE ALLOSTERIC MODULATORS OF THE MUSCARINIC ACETYLCHOLINE RECEPTOR M1” (Vanderbilt University, priority 2018, published 2019).

The assay concerns the target T1, human mAChR M1 (Homo sapiens, UniProt P11229).
T1 construct: host or cells: CHO-K1 (ATCC), stably transfected using Lipofectamine 2000
T1 sequence (P11229 1-460): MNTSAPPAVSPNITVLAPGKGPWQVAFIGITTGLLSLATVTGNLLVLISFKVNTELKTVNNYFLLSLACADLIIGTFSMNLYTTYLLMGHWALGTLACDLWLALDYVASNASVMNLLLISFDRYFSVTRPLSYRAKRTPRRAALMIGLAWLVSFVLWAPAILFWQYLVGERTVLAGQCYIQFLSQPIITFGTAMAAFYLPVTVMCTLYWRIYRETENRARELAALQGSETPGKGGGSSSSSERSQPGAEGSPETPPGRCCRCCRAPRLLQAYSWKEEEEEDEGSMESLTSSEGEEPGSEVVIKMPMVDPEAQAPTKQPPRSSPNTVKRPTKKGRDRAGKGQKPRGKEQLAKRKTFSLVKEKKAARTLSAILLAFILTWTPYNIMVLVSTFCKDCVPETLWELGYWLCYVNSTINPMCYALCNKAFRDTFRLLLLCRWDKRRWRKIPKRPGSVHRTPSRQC
Kind of assay: mAChR M1 cell-based functional assay (calcium mobilization, Fluo-4, FDSS). The conditions noted are these: CHO-K1 cells stably expressing hM1, calcium flux; for Emax: PAM mode with EC20 acetylcholine; for EC50: concentration-dependent increase in the EC20 acetylcholine response. The text has this:
Chinese hamster ovary (CHO-K1) cells stably expressing rat (r)M1 were purchased from the American Type Culture Collection and cultured according to their indicated protocol. CHO cells stably expressing human (h)M2, hM3, and hM5 were described previously (Levey, et al., 1991); hM1 and hM4 cDNAs were purchased from Missouri S&T cDNA Resource; rM4 cDNA was provided by T. I. Bonner (National Institutes of Health, Bethesda, Md.). rM2 and rM3 were cloned from a rat brain cDNA library and sequence verified. hM1, rM2, rM3, hM4, and rM4 cDNAs were used to stably transfect CHO-K1 cells purchased from the American Type Culture Collection using Lipofectamine 2000. To make stable rM2, hM2, rM3, hM4, and rM4 cell lines for use in calcium mobilization assays, these cells also were stably transfected with a chimeric G-protein (Gqi5) (provided by B. R. Conklin, University of California, San Francisco) using Lipofectamine 2000. rM1, hM1, rM3, hM3, rM5, and hM5 cells were grown in Ham's F-12 medium containing 10% heat-inactivated fetal bovine serum (FBS), 20 mM HEPES, and 50 µg/mL G418 sulfate. rM2-Gqi5, hM2-Gqi5, and hM4-Gqi5 cells were grown in the same medium also containing 500 μg/mL Hygromycin B. Stable rM4-Gqi5 cells were grown in DMEM containing 10% heat-inactivated FBS, 20 mM HEPES, 400 μg/mL G418 sulfate, and 500 μg/mL Hygromycin B.
For high throughput measurement of agonist-evoked increases in intracellular calcium, CHO-K1 cells stably expressing muscarinic receptors were plated in growth medium lacking G418 and hygromycin at 15,000 cells/20 μL/well in Greiner 384-well black-walled, tissue culture (TC)-treated, clear-bottom plates (VWR). Cells were incubated overnight at 37° C. and 5% CO2. The next day, cells were washed using an ELX 405 (BioTek) with four washes ([…]) of assay buffer then aspirated to 20 μL. Next, 20 μL of 16 μM Fluo-4/acetoxymethyl ester (Invitrogen, Carlsbad, Calif.) prepared as a 2.3 mM stock in DMSO and mixed in a 1:1 ratio with 10% (w/v) Pluronic F-127 and diluted in assay buffer was added to the wells and the cell plates were incubated for 50 min at 37° C. and 5% CO2. Dye was removed by washing with the ELX 405 (four 80 μL washes of assay buffer) then aspirated to 20 μL. Compound master plates were formatted in an 11 point CRC format (1:3 dilutions) in 100% DMSO with a starting concentration of 10 mM using the BRAVO liquid handler (Agilent). Test compound CRCs were then transferred to daughter plates (240 nL) using the Echo acoustic plate reformatter (Labcyte, Sunnyvale, Calif.) and then diluted into assay buffer (40 μL) to a 2× stock using a Thermo Fisher Combi (Thermo Fisher Scientific, Waltham, Mass.).
Calcium flux was measured using the Functional Drug Screening System (FDSS) 6000 (Hamamatsu Corporation, Tokyo, Japan) as an increase in the fluorescent static ratio. Compounds were applied to cells (20 μL, 2×) using the automated system of the FDSS 6000 at 4 s into the 300 s protocol and the data were collected at 1 Hz. At 144 s into the 300s protocol, 10 μL of an EC20 concentration of the muscarinic receptor agonist acetylcholine was added (5×), followed by the addition of 12 μL an EC80 concentration of acetylcholine at the 230 s time point (5×). Agonist activity was analyzed as a concentration-dependent increase in calcium mobilization upon compound addition. Positive allosteric modulator activity was analyzed as a concentration-dependent increase in the EC20 acetylcholine response. Antagonist activity was analyzed as a concentration-dependent decrease in the EC80 acetylcholine response. Concentration-response curves were generated using a four-parameter logistical equation in XLfit curve fitting software (IDBS, Bridgewater, N.J.) for Excel (Microsoft, Redmond, Wash.) or Prism (GraphPad Software, Inc., San Diego, Calif.).
Activity (EC50 and Emax) was determined in the mAChR M1 cell-based functional assay as described above and the data are shown in Table 2. […]
(Calcium flux is commonly read through the fluorescence of an indicator in the cells.)

The term Emax denotes the maximal effect, on the per cent scale that the assay sets. Broadly, the EC50 is the midpoint of the concentration-response curve. Regarding `Cc1cc(-c2cc(F)c(CN3Cc4cnn(CC5CCCO5)c4C3=O)c(F)c2)ccn1` (stereo not shown) [Compound 39, 5-(2,6-difluoro-4-(2-methylpyridin-4-yl)benzyl)-1-((tetrahydrofuran-2-yl)methyl)-4,5-dihydropyrrolo[3,4-c]pyrazol-6(1H)-one], the Emax worked out at 65% and the 50% effective concentration (EC50) was 3.58 µM.

Regarding `Cn1cc2c(-c3ccc(CN4Cc5sccc5C4=O)c(F)c3)cccc2n1` [Compound 40, 5-(2-fluoro-4-(2-methyl-2H-indazol-4-yl)benzyl)-5,6-dihydro-4H-thieno[2,3-c]pyrrol-4-one], the maximum response (Emax) was found to be 67% and the EC50 came out at 3.97 µM.

Regarding `Cn1cc(-c2ccc(CN3Cc4sccc4C3=O)c(F)c2)cn1` [Compound 41, 5-(2-fluoro-4-(1-methyl-1H-pyrazol-4-yl)benzyl)-5,6-dihydro-4H-thieno[2,3-c]pyrrol-4-one], the Emax is 69%.

For `Cn1ccc(-c2ccc(CN3Cc4sccc4C3=O)c(F)c2)n1` [Compound 42, 5-(2-fluoro-4-(1-methyl-1H-pyrazol-3-yl)benzyl)-5,6-dihydro-4H-thieno[2,3-c]pyrrol-4-one], the Emax worked out at 46%.

On to `Cc1nn(C)cc1-c1ccc(CN2Cc3sccc3C2=O)c(F)c1` [Compound 43, 5-(4-(1,3-dimethyl-1H-pyrazol-4-yl)-2-fluorobenzyl)-5,6-dihydro-4H-thieno[2,3-c]pyrrol-4-one], for which the maximum response (Emax) was determined as 70%.

In the case of `Cn1cc2cc(-c3ccc(CN4Cc5sccc5C4=O)c(F)c3)ccc2n1` [Compound 44, 5-(2-fluoro-4-(2-methyl-2H-indazol-5-yl)benzyl)-5,6-dihydro-4H-thieno[2,3-c]pyrrol-4-one], the Emax amounted to 51% and the EC50 is 2.78 µM.

In the case of `O=C1c2ccsc2CN1Cc1ccc(-c2ccc3nccn3c2)cc1F` [Compound 45, 5-(2-fluoro-4-(imidazo[1,2-a]pyridin-6-yl)benzyl)-5,6-dihydro-4H-thieno[2,3-c]pyrrol-4-one], the Emax is 50% and the 50% effective concentration (EC50) stood at 4.46 µM.

`Cn1cc(-c2ccc(CN3Cc4sccc4C3=O)cc2)cn1` [Compound 46, 5-(4-(1-methyl-1H-pyrazol-4-yl)benzyl)-5,6-dihydro-4H-thieno[2,3-c]pyrrol-4-one]: the maximal response (Emax) is 50%.

On to `O=C1c2ccsc2CN1Cc1ccc(-c2cscn2)cc1` [Compound 47, 5-(4-(thiazol-4-yl)benzyl)-5,6-dihydro-4H-thieno[2,3-c]pyrrol-4-one], for which the maximum response (Emax) worked out at 30%.

As to `Cn1cc(-c2ccc(CN3Cc4sccc4C3=O)cc2)nn1` [Compound 48, 5-(4-(1-methyl-1H-1,2,3-triazol-4-yl)benzyl)-5,6-dihydro-4H-thieno[2,3-c]pyrrol-4-one], the maximal response (Emax) was determined as 33%.

Consider `Cn1cc2c(-c3cc(F)c(CN4Cc5ccn(CC6CCCO6)c5C4=O)c(F)c3)cccc2n1` (stereo not shown) [Compound 49, 5-(2,6-difluoro-4-(2-methyl-2H-indazol-4-yl)benzyl)-1-((tetrahydrofuran-2-yl)methyl)-4,5-dihydropyrrolo[3,4-b]pyrrol-6(1H)-one], for which the Emax was found to be 60% and the EC50 came to 6.45 µM.

With `Cn1cc(-c2cc(F)c(CN3Cc4ccn(CC5CCCO5)c4C3=O)c(F)c2)cn1` (stereo not shown) [Compound 50, 5-(2,6-difluoro-4-(1-methyl-1H-pyrazol-4-yl)benzyl)-1-((tetrahydrofuran-2-yl)methyl)-4,5-dihydropyrrolo[3,4-b]pyrrol-6(1H)-one], the Emax is 38% and the EC50 was found to be 3.44 µM.

`Cc1nn(C)cc1-c1cc(F)c(CN2Cc3ccn(CC4CCCO4)c3C2=O)c(F)c1` (stereo not shown) [Compound 51, 5-(4-(1,3-dimethyl-1H-pyrazol-4-yl)-2,6-difluorobenzyl)-1-((tetrahydrofuran-2-yl)methyl)-4,5-dihydropyrrolo[3,4-b]pyrrol-6(1H)-one]: the maximum response (Emax) stood at 51% and the EC50 was determined as 3.45 µM.

For `O=C1c2c(ccn2CC2CCCO2)CN1Cc1c(F)cc(-c2ccc3nccn3c2)cc1F` (stereo not shown) [Compound 52, 5-(2,6-difluoro-4-(imidazo[1,2-a]pyridin-6-yl)benzyl)-1-((tetrahydrofuran-2-yl)methyl)-4,5-dihydropyrrolo[3,4-b]pyrrol-6(1H)-one], the maximal effect (Emax) is 33% and the EC50 was 2.15 µM.

With `CCn1ccc2c1C(=O)N(Cc1c(F)cc(-c3cccc4nn(C)cc34)cc1F)C2` [Compound 53, 5-(2,6-difluoro-4-(2-methyl-2H-indazol-4-yl)benzyl)-1-ethyl-4,5-dihydropyrrolo[3,4-b]pyrrol-6(1H)-one], the maximum response (Emax) stood at 63%.

Consider `Cn1cc2c(-c3cc(F)c(CN4Cc5ccn(CCCO)c5C4=O)c(F)c3)cccc2n1` [Compound 54, 5-(2,6-difluoro-4-(2-methyl-2H-indazol-4-yl)benzyl)-1-(3-hydroxypropyl)-4,5-dihydropyrrolo[3,4-b]pyrrol-6(1H)-one], for which the maximum response (Emax) amounted to 69% and the EC50 amounted to 5.58 µM.

Take `Cn1cc2c(-c3cc(F)c(CN4Cc5ccn(CC6CCOCC6)c5C4=O)c(F)c3)cccc2n1` [Compound 55, 5-(2,6-difluoro-4-(2-methyl-2H-indazol-4-yl)benzyl)-1-((tetrahydro-2H-pyran-4-yl)methyl)-4,5-dihydropyrrolo[3,4-b]pyrrol-6(1H)-one]: the maximum response (Emax) amounted to 59% and the EC50 was 8.98 µM.

For `Cn1cc2c(-c3cc(F)c(CN4Cc5occc5C4=O)c(F)c3)cccc2n1` [Compound 56, 5-(2,6-difluoro-4-(2-methyl-2H-indazol-4-yl)benzyl)-5,6-dihydro-4H-furo[2,3-c]pyrrol-4-one], the maximal effect (Emax) is 80% and the EC50 is 3.6 µM.

For `Cn1cc2cc(-c3cc(F)c(CN4Cc5occc5C4=O)c(F)c3)ccc2n1` [Compound 57, 5-(2,6-difluoro-4-(2-methyl-2H-indazol-5-yl)benzyl)-5,6-dihydro-4H-furo[2,3-c]pyrrol-4-one], the Emax worked out at 42% and the EC50 stood at 0.99 µM.

`Cn1cc(-c2cc(F)c(CN3Cc4occc4C3=O)c(F)c2)cn1` [Compound 58, 5-(2,6-difluoro-4-(1-methyl-1H-pyrazol-4-yl)benzyl)-5,6-dihydro-4H-furo[2,3-c]pyrrol-4-one]: the Emax came to 78%.

Consider `Cc1nn(C)cc1-c1cc(F)c(CN2Cc3occc3C2=O)c(F)c1` [Compound 59, 5-(4-(1,3-dimethyl-1H-pyrazol-4-yl)-2,6-difluorobenzyl)-5,6-dihydro-4H-furo[2,3-c]pyrrol-4-one], for which the Emax was determined as 90%.

For `Cn1cc2cccc(-c3cc(F)c(CN4Cc5occc5C4=O)c(F)c3)c2n1` [Compound 60, 5-(2,6-difluoro-4-(2-methyl-2H-indazol-7-yl)benzyl)-5,6-dihydro-4H-furo[2,3-c]pyrrol-4-one], the maximum response (Emax) is 50%.
